In patent US8758746B2, “Fertilization modulation compounds and process for implementing them” (Universite Joseph Fourier, priority 2009, dated 2014):
“Also recorded” adds a separate entry of the source.

Columns and labels:
Sperm cells [1] = experiment: Electron microscopy of sPLA2-induced acrosome reaction; type: cell-based, mouse; conditions: uncapacitated sperm, incubated 10 min (200 nM sPLA2)
Experimental: Sperm cells were fixed with 2.5% glutaraldehyde in 0.1 M cacodylate buffer pH 7.4 during 2 hours at room temperature. Cells were then washed with buffer and post fixed with 1% Osmium tetroxyde in the same buffer during 1 hour at 4° C. After extensive washing with water cells were then stained with 0.5% uranile acetate pH 4 overnight at 4° C. Cells were then dehydrated through graded alcohol (30%-60%-90%-100%-100%-100%) and infiltrate with a mix of 1/1 epon/alcohol 100% during 1 hour before several bath of fresh epon (Flukka) during 3 hours. Finally, cells were centrifugated and immersed in fresh Epon and polymerised during 3 days at 60° C. Ultrathin sections of the cell pellet were cut with an ultramicrotome (Leica). Sections were post-stained with 4% uranile acetate and 1% lead citrate before being observed in an electron microscope at 80 kV (JEOL 1200EX).
It was important to check with electron microscopy (EM) that sPLA2 induced a morphologically normal acrosome reaction. The morphological criteria by which an acrosome reaction is evaluated to be normal are relatively limited: first, the outer acrosomal membrane should present vesiculation, second, the plasma membrane should fuse with the outer acrosomal membrane and present a characteristic double hair pin shape at the base of the acrosome (Green, D. P. (1978) The induction of the acrosome reaction in guinea-pig sperm by the divalent metal cation ionophore A23187. J. Cell Sci., 32:137-51.:137-151.)
For these experiments, uncapacitated sperm was used in order to reduce the contribution of spontaneous AR and 200 nM sPLA2 to get maximum sPLA2-induced AR. Sperm were incubated 10 min with mGX sPLA2 or the calcium ionophore A23187 and then fixed. In the presence of A23187, all acrosome-reacted sperm presented complete AR, with the 3 morphological criteria, as described above.

Sperm cells [2] = experiment: Detection of mGX sPLA2 released from sperm cells (TR-FIA); type: cell-based, mouse; conditions: 90 min capacitation in 2% BSA, A23187 (5 μM) during the last 30 min
Experimental: Sperm cells from 4 caudae epididymes of mGX sPLA2 mice were allowed to swim for 15 min at 37° C. in 2.5 ml of M2 medium. Aliquots of 500 μl of sperm cells were then diluted in 4.5 ml of M16 medium containing 2% fatty acid free BSA and further incubated at 37° C. for 0, 45 and 90 min. In some assays, A23187 Ca2+ ionophore (5 μM) was added after the first 60 min of incubation and sperm cells were incubated for an additional 30 min. After incubation, sperm cells were spun down for 8 min at 1,200 rpm, and supernatants and cell pellets were flash frozen in liquid nitrogen and stored at −80° C. mGX sPLA2 protein expression and enzymatic activity were analyzed on crude cell supernatants and cell pellets after resuspension in 500 μl of M16 medium containing a cocktail of protease inhibitors (Complete inhibitor set, Roche Biochemicals) and lysis with a Branson 350 Sonifier Cell disrupter. […] Briefly, 5 to 50 μl of cell lysates or supernatants were incubated for 60 min in 300 μl of sPLA2 activity buffer (0.1 M Tris pH 8.0, 10 mM CaCl2, and 0.1% bovine serum albumin containing 100,000 DPM of [3H]oleate-radiolabeled E. coli membranes. Reactions were stopped by addition of 300 μl of stop buffer (0.1 M EDTA pH 8.0 and 0.1% fatty acid free bovine serum Albumin); mixtures were centrifuged at 10,000 g for 5 min, and the supernatants containing released [^3H]oleate were counted.

## CNc1ccc2oc(C[C@H]3O[C@@]4(CC[C@H]3C)O[C@H]([C@H](C)C(=O)c3ccc[nH]3)[C@H](C)C[C@H]4C)nc2c1C(=O)O [A23187]
Sperm cells [1]
  morphology of induced acrosome reaction (electron microscopy): complete AR
Sperm cells [2]
  mGX level in the capacitation medium (TRFIA): two fold increase; also recorded: doubled
